For two compounds, Activity results are on record in ChEMBL document CHEMBL3779794, “Efficient synthesis and activity of beneficial intestinal flora of two lactulose-derived oligosaccharides” (Eur J Med Chem, 2016).

For this assay, the system named is Lactobacillus acidophilus. Nature of the assay: Prebiotic activity in Lactobacillus acidophilus in simulated intestinal fluid after 1 to 3 hrs. Format: functional.

Each structure is given as a SMILES string. Active and inactive are the calls of the source. The rule behind the calls is not given here.

Turning to `OC[C@H]1O[C@@H](O[C@@H]2[C@H](O)CO[C@](O)(CO)[C@H]2O)[C@H](O)[C@@H](O)[C@H]1O`, the outcome was Active.
As to `OC[C@H]1O[C@@H](O[C@H]2[C@H](O)[C@H](O)CO[C@]2(O)CO)[C@H](O)[C@@H](O)[C@H]1O`, the outcome was Active.
